pIC50: −log10 of the molar value.
Test system: 695427-040-R-J1-PDC complex spheroid viability
Experiment: Anticancer human tumor 695427-040-R-J1-PDC patient-derived colon adenocarcinoma cell line growth inhibition [RAS]
Conditions: for pIC50: curve of first compound; for viability, T/C: stronger effect = lower value
Procedure, shortened: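 Multi-cell-type spheroids: tumor cells plus HUVEC endothelial cells and mesenchymal stem cells. RAS-pathway inhibitors were combined with targeted agents, each dosed in half-log steps down from clinical Cmax, or from 10 microM when Cmax was unknown.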

[1] = second compound 0.000949 µM, first compound 0.000949 µM
[2] = second compound 0.000949 µM, first compound 0.003 µM
[3] = second compound 0.000949 µM, first compound 0.00949 µM
[4] = second compound 0.000949 µM, first compound 0.03 µM
[5] = second compound 0.000949 µM, first compound 0.0949 µM
[6] = second compound 0.000949 µM, first compound 0.3 µM
[7] = second compound 0.003 µM, first compound 0.000949 µM
[8] = second compound 0.003 µM, first compound 0.003 µM
[9] = second compound 0.003 µM, first compound 0.00949 µM
[10] = second compound 0.003 µM, first compound 0.03 µM
[11] = second compound 0.003 µM, first compound 0.0949 µM
[12] = second compound 0.003 µM, first compound 0.3 µM
[13] = second compound 0.00949 µM, first compound 0.000949 µM
[14] = second compound 0.00949 µM, first compound 0.003 µM
[15] = second compound 0.00949 µM, first compound 0.00949 µM
[16] = second compound 0.00949 µM, first compound 0.03 µM
[17] = second compound 0.00949 µM, first compound 0.0949 µM
[18] = second compound 0.00949 µM, first compound 0.3 µM
[19] = second compound 0.03 µM, first compound 0.000949 µM
[20] = second compound 0.03 µM, first compound 0.003 µM
[21] = second compound 0.03 µM, first compound 0.00949 µM
[22] = second compound 0.03 µM, first compound 0.03 µM
[23] = second compound 0.03 µM, first compound 0.0949 µM
[24] = second compound 0.03 µM, first compound 0.3 µM
[25] = second compound 0.0949 µM, first compound 0.000949 µM
[26] = second compound 0.0949 µM, first compound 0.003 µM
[27] = second compound 0.0949 µM, first compound 0.00949 µM
[28] = second compound 0.0949 µM, first compound 0.03 µM
[29] = second compound 0.0949 µM, first compound 0.0949 µM
[30] = second compound 0.0949 µM, first compound 0.3 µM
[31] = second compound 0.3 µM, first compound 0.000949 µM
[32] = second compound 0.3 µM, first compound 0.003 µM
[33] = second compound 0.3 µM, first compound 0.00949 µM
[34] = second compound 0.3 µM, first compound 0.03 µM
[35] = second compound 0.3 µM, first compound 0.0949 µM
[36] = second compound 0.3 µM, first compound 0.3 µM
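Also: viability read after seven days of drug exposure.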
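For viability, T/C in this document: 100% = DMSO vehicle control viability.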

C=CC(=O)N1CCN(c2nc(OCC3CCCN3C)nc3c(F)c(-c4nc(N)cc(C)c4C(F)(F)F)c(Cl)cc23)C(C)C1 (stereo unspecified) + CCn1c(-c2cccnc2C(C)OC)c2c3cc(ccc31)N1CCOC(CC(NC(=O)C(C(C)C)N(C)C(=O)C3(F)CCN(C(=O)C#CC(C)(C)N(C)C)CC3)C(=O)N3CCCC(N3)C(=O)OCC(C)(C)C2)C1
pIC50 (second compound 0.000949 µM): < 6.00 | pIC50 (second compound 0.003 µM): < 6.00 | pIC50 (second compound 0.00949 µM): < 6.00 | pIC50 (second compound 0.03 µM): < 6.00 | pIC50 (second compound 0.0949 µM): < 6.00 | pIC50 (second compound 0.3 µM): < 6.00 | viability, T/C (second compound 0.000949 µM, first compound 0.00316 µM): 113% | viability, T/C (second compound 0.000949 µM, first compound 0.01 µM): 102% | viability, T/C (second compound 0.000949 µM, first compound 0.0316 µM): 76.5% | viability, T/C (second compound 0.000949 µM, first compound 0.1 µM): 75.5% | viability, T/C (second compound 0.000949 µM, first compound 0.316 µM): 95.3% | viability, T/C (second compound 0.000949 µM, first compound 1 µM): 93.1% | viability, T/C (second compound 0.003 µM, first compound 0.00316 µM): 109% | viability, T/C (second compound 0.003 µM, first compound 0.01 µM): 98.4% | viability, T/C (second compound 0.003 µM, first compound 0.0316 µM): 94% | viability, T/C (second compound 0.003 µM, first compound 0.1 µM): 77% | viability, T/C (second compound 0.003 µM, first compound 0.316 µM): 99.4% | viability, T/C (second compound 0.003 µM, first compound 1 µM): 106% | viability, T/C (second compound 0.00949 µM, first compound 0.00316 µM): 104% | viability, T/C (second compound 0.00949 µM, first compound 0.01 µM): 116% | viability, T/C (second compound 0.00949 µM, first compound 0.0316 µM): 85.1% | viability, T/C (second compound 0.00949 µM, first compound 0.1 µM): 80% | viability, T/C (second compound 0.00949 µM, first compound 0.316 µM): 105% | viability, T/C (second compound 0.00949 µM, first compound 1 µM): 95% | viability, T/C (second compound 0.03 µM, first compound 0.00316 µM): 97.1% | viability, T/C (second compound 0.03 µM, first compound 0.01 µM): 104% | viability, T/C (second compound 0.03 µM, first compound 0.0316 µM): 85.2% | viability, T/C (second compound 0.03 µM, first compound 0.1 µM): 75.9% | viability, T/C (second compound 0.03 µM, first compound 0.316 µM): 100% | viability, T/C (second compound 0.03 µM, first compound 1 µM): 108% | viability, T/C (second compound 0.0949 µM, first compound 0.00316 µM): 96.9% | viability, T/C (second compound 0.0949 µM, first compound 0.01 µM): 101% | viability, T/C (second compound 0.0949 µM, first compound 0.0316 µM): 107% | viability, T/C (second compound 0.0949 µM, first compound 0.1 µM): 84.4% | viability, T/C (second compound 0.0949 µM, first compound 0.316 µM): 102% | viability, T/C (second compound 0.0949 µM, first compound 1 µM): 107% | viability, T/C (second compound 0.3 µM, first compound 0.00316 µM): 84.2% | viability, T/C (second compound 0.3 µM, first compound 0.01 µM): 86.4% | viability, T/C (second compound 0.3 µM, first compound 0.0316 µM): 89.1% | viability, T/C (second compound 0.3 µM, first compound 0.1 µM): 88.8% | viability, T/C (second compound 0.3 µM, first compound 0.316 µM): 88.7% | viability, T/C (second compound 0.3 µM, first compound 1 µM): 78%

CC1(C)CCC(Nc2ncc(C(F)(F)F)c(-c3c[nH]c4c(P(C)(C)=O)c(C#N)ccc34)n2)CN1 (stereo unspecified) + CCn1c(-c2cccnc2C(C)OC)c2c3cc(ccc31)N1CCOC(CC(NC(=O)C(C(C)C)N(C)C(=O)C3(F)CCN(C(=O)C#CC(C)(C)N(C)C)CC3)C(=O)N3CCCC(N3)C(=O)OCC(C)(C)C2)C1
pIC50 (second compound 0.000949 µM): < 6.52 | pIC50 (second compound 0.003 µM): < 6.52 | pIC50 (second compound 0.00949 µM): < 6.52 | pIC50 (second compound 0.03 µM): < 6.52 | pIC50 (second compound 0.0949 µM): < 6.52 | pIC50 (second compound 0.3 µM): < 6.52 | viability, T/C [1]: 85% | viability, T/C [2]: 116% | viability, T/C [3]: 95.5% | viability, T/C [4]: 100% | viability, T/C [5]: 85.6% | viability, T/C [6]: 90.6% | viability, T/C [7]: 104% | viability, T/C [8]: 105% | viability, T/C [9]: 81% | viability, T/C [10]: 103% | viability, T/C [11]: 86.9% | viability, T/C [12]: 55.1% | viability, T/C [13]: 108% | viability, T/C [14]: 104% | viability, T/C [15]: 98.3% | viability, T/C [16]: 113% | viability, T/C [17]: 103% | viability, T/C [18]: 65.4% | viability, T/C [19]: 101% | viability, T/C [20]: 80.8% | viability, T/C [21]: 89.9% | viability, T/C [22]: 90.5% | viability, T/C [23]: 97.5% | viability, T/C [24]: 90.1% | viability, T/C [25]: 105% | viability, T/C [26]: 78.2% | viability, T/C [27]: 107% | viability, T/C [28]: 98% | viability, T/C [29]: 93.3% | viability, T/C [30]: 80.2% | viability, T/C [31]: 75.7% | viability, T/C [32]: 93.8% | viability, T/C [33]: 84.3% | viability, T/C [34]: 92.1% | viability, T/C [35]: 85.7% | viability, T/C [36]: 78.1%

CCc1c2c(nc3ccc(O)cc13)-c1cc3c(c(=O)n1C2)COC(=O)[C@]3(O)CC + CCn1c(-c2cccnc2C(C)OC)c2c3cc(ccc31)N1CCOC(CC(NC(=O)C(C(C)C)N(C)C(=O)C3(F)CCN(C(=O)C#CC(C)(C)N(C)C)CC3)C(=O)N3CCCC(N3)C(=O)OCC(C)(C)C2)C1
pIC50 (second compound 0.000949 µM): 6.95 | pIC50 (second compound 0.003 µM): 6.88 | pIC50 (second compound 0.00949 µM): 7.31 | pIC50 (second compound 0.03 µM): 7.16 | pIC50 (second compound 0.0949 µM): 7.10 | pIC50 (second compound 0.3 µM): 7.02 | viability, T/C [1]: 97.1% | viability, T/C [2]: 93.3% | viability, T/C [3]: 84.2% | viability, T/C [4]: 61.5% | viability, T/C [5]: 56.7% | viability, T/C [6]: 37.7% | viability, T/C [7]: 91.7% | viability, T/C [8]: 84.6% | viability, T/C [9]: 66.1% | viability, T/C [10]: 64.1% | viability, T/C [11]: 53% | viability, T/C [12]: 43.1% | viability, T/C [13]: 98.3% | viability, T/C [14]: 76.8% | viability, T/C [15]: 65.8% | viability, T/C [16]: 63.4% | viability, T/C [17]: 36.5% | viability, T/C [18]: 35.8% | viability, T/C [19]: 79.8% | viability, T/C [20]: 96.4% | viability, T/C [21]: 80.1% | viability, T/C [22]: 71.6% | viability, T/C [23]: 41.7% | viability, T/C [24]: 31.5% | viability, T/C [25]: 87.3% | viability, T/C [26]: 79.5% | viability, T/C [27]: 81.6% | viability, T/C [28]: 49.7% | viability, T/C [29]: 57% | viability, T/C [30]: 24.2% | viability, T/C [31]: 82.7% | viability, T/C [32]: 101% | viability, T/C [33]: 69.7% | viability, T/C [34]: 58.8% | viability, T/C [35]: 57% | viability, T/C [36]: 31.2%

Reference: PubChem BioAssay AID2060888 (Molecular Pharmacology Branch, DTP, NCI, 2025)
